Experimental data published in US7589123B2, “Chemical compounds” (Phytopharm PLC, priority 2006, dated 2009).

Legend:
5-lipoxygenase = biological target: T1, 5-lipoxygenase (Homo sapiens, UniProt P09917); test: 5-lipoxygenase activity (LTB4) in human peripheral blood mononuclear leukocytes (Assay 6); format: cell-based; details: human PBMLs, A23187 30 μM, read-out: Inhibition of 5-LO (%)
T1 construct: endogenous in cells; host or cells: human peripheral blood mononuclear leukocytes (PBMLs)
T1 sequence (P09917 1-674): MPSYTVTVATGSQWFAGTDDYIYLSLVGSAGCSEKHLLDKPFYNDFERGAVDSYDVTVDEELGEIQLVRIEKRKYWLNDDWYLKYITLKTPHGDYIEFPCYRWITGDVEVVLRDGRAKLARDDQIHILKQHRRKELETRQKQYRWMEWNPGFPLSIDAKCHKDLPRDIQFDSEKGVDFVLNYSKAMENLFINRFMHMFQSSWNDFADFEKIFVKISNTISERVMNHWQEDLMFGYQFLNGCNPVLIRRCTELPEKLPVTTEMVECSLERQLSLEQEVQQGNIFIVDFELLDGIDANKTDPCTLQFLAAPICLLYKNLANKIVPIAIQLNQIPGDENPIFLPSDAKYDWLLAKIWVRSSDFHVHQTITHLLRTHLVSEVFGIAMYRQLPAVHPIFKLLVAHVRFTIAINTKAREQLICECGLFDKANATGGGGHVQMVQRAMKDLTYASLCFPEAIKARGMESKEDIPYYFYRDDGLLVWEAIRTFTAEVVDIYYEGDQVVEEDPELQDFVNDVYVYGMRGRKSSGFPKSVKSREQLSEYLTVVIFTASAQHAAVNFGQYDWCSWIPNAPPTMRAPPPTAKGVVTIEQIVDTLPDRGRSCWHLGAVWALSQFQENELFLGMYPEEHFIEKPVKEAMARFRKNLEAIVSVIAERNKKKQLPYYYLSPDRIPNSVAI
Method: Human peripheral blood mononuclear leukocytes (PBMLs) were isolated using a Ficoll-Paque density gradient. Human peripheral blood mononuclear leukocytes (5×10^6 cells) were incubated with A23187 (30 μM), a divalent cation ionophore used to initiate the biosynthesis of […], and with vehicle (0.1% DMSO) or test compound (3 and 30 μM) in Hank's balanced salt solution (HBBS) buffer, pH 7.4 at 37° C. for 15 min. The PBML solution was neutralized with NaOH (1 N) and centrifuged at 1000 g for 10 min and the supernatant collected. The concentration of leukotriene B4 (LTB4) in the supernatant was measured using an enzyme immunoassay kit (Assay Design Inc.). A reduction in the concentration of LTB4 indicated an inhibition of the enzyme 5-lipoxygenase (Table 11).

[1] = test system: α-smooth muscle actin (α-SMA) mRNA; test: Anti-remodelling activity in human lung fibroblasts (HFL1): TGFβ-induced α-SMA mRNA (Assay 4); format: cell-based; details: Homo sapiens, HFL1 cells, TGFβ 10 ng/ml, 24 h, read-out: Inhibition of α-SMA mRNA synthesis (%)
Method: A human foetal lung fibroblast cell line (HFL1 cells; ATCC accession number CCl-153) was used in this assay. The cells were cultured in medium containing a low level of foetal bovine serum (FBS; 0.1%) for 24 h. After 24 h of culturing the medium was changed to: (a) Control medium (medium containing 10% FBS, 1% phosphate saline and 0.5 mM L-glutamine), (b) Control medium and transforming growth factor beta (TGFβ; 10 ng/ml), (c) Control medium and TGFβ and test compounds (3 and 30 μM). The medium was collected after 24 h and the total mRNA extracted in Tri-reagent. The level of mRNA coding for α-smooth muscle actin (α-SMA) was assessed by real-time reverse transcription-polymerase chain reaction (rtRT-PCR) using primer couples that allow the amplification of α-SMA mRNA. Liver glyceraldehydes 3-phosphate dehydrogenase (GADPH) was used as a reference marker in this experiment. The inhibition of the TGTβ-induced overexpression of α-SMA mRNA by the test compounds was quantified.

WI-38 cells = test: Viability of WI-38 cells, Alamar Blue (Assay 5); format: cell-based, human
Method: (§1) Human diploid lung fibroblasts (WI-38 cells) were incubated overnight in the presence of IL-1α (1 nM) and test compound (3 and 30 μM) in modified Eagle medium at pH 7.3 containing foetal bovine serum (10%) at 37° C. The supernatant was assayed by radioimmunoassay for released PGE2 and the inhibition of PGE2 by test compound calculated (Table 10). The viability of the cells was then assessed by washing with Roswell Park Memorial Institute medium and adding Alamar Blue reagent before being incubated at 37° C. for 4 h. Living cells take up Alamar Blue and emit fluorescence when excited. Fluorescence intensity was measured using a SpectroFluor Plus plate reader with excitation at 530 nm and emission at 590 nm (Table 10).

TRPV1 receptor = TRPV1 receptor (Rattus norvegicus, UniProt O35433); test: TRPV1 modulation in DRG neurones: CGRP release in absence and presence of capsaicin (Assay 2); format: cell-based; set-up: The culture used for this experiment contained sensory neurones, Schwann cells and fibroblasts; endogenous in cells; host or cells: primary rat DRG sensory neurone culture (with Schwann cells and fibroblasts); details: 20 min; for inhibition at 3 µM: 3 μM with capsaicin 1 μM; for Emax at 3 µM: test compound alone 3 μM; for Emax at 3 µM / Emax at 30 µM: rat DRG sensory neurones, read-out: CGRP release (% of capsaicin (1 μM) response); for Emax at 30 µM: test compound alone 30 μM
[2] = test system: histamine-induced contractions in guinea pig ileum; test: Inhibition of histamine-induced contractions in guinea pig ileum (Assay 3); details: Cavia porcellus, histamine 1.7 μM, read-out: Inhibition of histamine-induced contraction (%)
Method: (§2) Duncan Hartley derived male guinea pigs (325±25 g) were suppressed by CO2 overexposure, the abdominal cavity was exposed and ileal segments were removed. Small strips of ileum were suspended in organ baths containing Krebs solution (composition in g/l: NaCl 6.89, KCl 0.35, CaCl2 0.277, KH2PO4 0.163, MgSO4.7H2O 0.296, NaHCO3 2.1 glucose 1.8). The solution was kept at 32° C. and gassed with O2 (95%)-CO2 (5%) to maintain pH at 7.4. Mechanical activity was recorded by means of isotonic transducers. A resting tension of 1 g was applied to muscle strips before being equilibrated for 1 h, prior to test compound addition. Each preparation was washed twice at 15 min intervals during the equilibration.
(§3) Histamine (1.7 μM; approximately EC60-70) or 5-hydroxytryptamine (5-HT, 2.6 μM; approximately EC60-70) was applied for 5 min and the amplitude of the contraction recorded. The histamine or 5-HT was then washed out until the ileal tissue returned to baseline. Five min after returning to baseline test compound (3 and 30 μM) was applied and the amplitude of the contraction (if any) was recorded. In the continuous presence of test compound, histamine or 5-HT was re-applied and the inhibition of the response was recorded.

[3] = test system: 5-HT-induced contractions in guinea pig ileum; test: Inhibition of 5-HT-induced contractions in guinea pig ileum (Assay 3); details: Cavia porcellus, 5-HT 2.6 μM, read-out: Inhibition of 5-HT-induced contraction (%)
Method: as §2, §3

[4] = test system: IL-1α-induced PGE2 release; test: IL-1α-induced PGE2 release in human diploid lung fibroblasts (WI-38) (Assay 5); format: cell-based; details: Homo sapiens, WI-38 cells, IL-1α 1 nM, overnight
Method: as §1

[5] = −ve: inhibition, +ve: potentiation of capsaicin response, read-out: Effect of test compounds on capsaicin (1 μM)-induced CGRP release (%)
[6] = 30 μM with capsaicin 1 μM, −ve: inhibition, +ve: potentiation of capsaicin response, read-out: Effect of test compounds on capsaicin (1 μM)-induced CGRP release (%)

Sequence of TRPV1 receptor (O35433 whole entry): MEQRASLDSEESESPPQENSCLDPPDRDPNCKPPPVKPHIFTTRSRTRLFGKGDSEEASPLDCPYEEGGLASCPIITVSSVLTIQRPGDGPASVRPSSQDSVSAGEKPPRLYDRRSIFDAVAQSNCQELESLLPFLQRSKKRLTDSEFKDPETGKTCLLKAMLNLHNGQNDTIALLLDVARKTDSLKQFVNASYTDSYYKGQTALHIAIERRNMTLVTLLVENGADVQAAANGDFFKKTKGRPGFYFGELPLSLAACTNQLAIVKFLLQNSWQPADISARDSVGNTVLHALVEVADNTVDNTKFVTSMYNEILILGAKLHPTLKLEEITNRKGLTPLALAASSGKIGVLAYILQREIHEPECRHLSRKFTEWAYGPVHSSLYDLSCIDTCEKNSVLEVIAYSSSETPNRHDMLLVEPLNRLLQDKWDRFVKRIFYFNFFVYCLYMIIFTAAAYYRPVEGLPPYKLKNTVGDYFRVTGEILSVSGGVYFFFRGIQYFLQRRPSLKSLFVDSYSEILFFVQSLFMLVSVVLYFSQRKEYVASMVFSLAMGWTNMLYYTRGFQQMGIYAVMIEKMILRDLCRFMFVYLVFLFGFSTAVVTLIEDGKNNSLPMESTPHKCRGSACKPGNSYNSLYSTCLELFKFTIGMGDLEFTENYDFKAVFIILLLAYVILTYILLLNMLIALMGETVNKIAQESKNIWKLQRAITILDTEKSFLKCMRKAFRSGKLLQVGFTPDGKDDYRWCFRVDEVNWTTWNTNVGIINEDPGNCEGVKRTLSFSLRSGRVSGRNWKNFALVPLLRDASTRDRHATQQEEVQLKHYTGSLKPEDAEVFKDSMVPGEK

SMILES | inhibition at 3 µM (5-lipoxygenase) | inhibition at 30 µM (5-lipoxygenase) | inhibition at 3 µM [1] | inhibition at 30 µM [1] | Decrease in cell viability (%) (WI-38 cells; 3 μM) | Decrease in cell viability (%) (WI-38 cells; 30 μM) | inhibition at 3 µM (TRPV1 receptor; [5]) | percent change in capsaicin-induced CGRP release (negative = inhibition, positive = potentiation) at 30 µM (TRPV1 receptor; [6]) | Emax at 3 µM (TRPV1 receptor) | Emax at 30 µM (TRPV1 receptor) | inhibition at 3 µM [2] | inhibition at 30 µM [2] | inhibition at 3 µM [3] | inhibition at 30 µM [3] | inhibition at 3 µM [4] | inhibition at 30 µM [4] | inhibition at 30 µM (TRPV1 receptor; [6])
COc1cc(CCC(=O)CC(=O)c2ccc(C(C)(C)C)cc2)ccc1O [Compound 83, 1-(4-tert-Butylphenyl)-5-(4-hydroxy-3-methoxyphenyl)pentane-1,3-dione] | 52% | 99% | -2% | 86% | 4% | 31% | 11% | 0% | 66% | 144% | 16% | 17% | 4% | 11% | 86% | 102% | 
COc1cc(CCC(=O)C(Cc2ccccc2)C(=O)c2ccccc2)ccc1O (stereo not drawn) [Compound 13, 2-Benzyl-5-(4-hydroxy-3-methoxyphenyl)-1-phenylpentane-1,3-dione] | 51% | 98% | 14% | 77% | −4% | −3% | 48% |  | 75% | 245% | 6% | 78% | 15% | 66% | 73% | 99% | -67%
COc1cc(CCC(=O)CC(=O)C(c2ccccc2)c2ccccc2)ccc1O [Compound 30, 6-(4-Hydroxy-3-methoxyphenyl)-1,1-diphenyl-hexane-2,4-dione] | 50% | 99% | 84% | 100% | −10% | 29% | 49% |  | 70% | 122% | 8% | 89% | 6% |  | 46% | 99% | -150%
COc1cc(CCC(=O)CC(=O)C(C)(C)c2ccccc2)ccc1O [Compound 31, 6-(4-Hydroxy-3-methoxyphenyl)-1,1-dimethyl-1-phenyl-hexane-2,4-dione] | 32% | 95% | 34% | 80% | 5% | −7% | 17% |  | 56% | 109% | 12% | 68% | 10% | 96% | 83% | 101% | -77%
COc1cc(CCC(=O)C(C)C(=O)c2ccc(C)cc2)ccc1O (stereo not drawn) [Compound 14, 5-(4-Hydroxy-3-methoxylphenyl)-2-methyl-1-p-tolyl-pentane-1,3-dione] | 57% | 96% | 11% | 17% | 5% | −4% | -12% |  | 120% | 94% | 10% | 54% | 10% | 74% | 77% | 101% | 35%
COC(=O)c1ccc(C(=O)CC(=O)CCc2ccc(O)c(OC)c2)cc1 [Compound 25, Methyl 4-(5-(4-hydroxy-3-methoxyphenyl)-3-oxopentanoyl)benzoate] | 54% | 94% | -3% | 20% | −6% | 0% | 18% |  | 48% | 59% | 1% | 43% | 12% | 35% | 58% | 102% | 21%
COc1cc(CCC(=O)CC(=O)Cc2ccccc2)ccc1O [Compound 28, 6-(4-Hydroxy-3-methoxyphenyl)-1-phenyl-hexane-2,4-dione] | 35% | 98% | 12% | 47% | 1% | 6% | 51% |  | 29% | 107% | 7% | 18% | 6% | 85% | 87% | 99% | -29%
